Data on 22 compounds can be found in US20240083857A1, “2-Methyl-Quinazolines” (Bayer Pharma Aktiengesellschaft, priority 2017, published 2024).

Read-outs that look alike come from different tables or passages of the source.

Test [1] addresses Epidermal Growth Factor Receptor (EGFR) (Homo sapiens (Human), UniProt P00533). Briefly: EGFR kinase assay (TR-FRET). The class given is biochemical. In outline:
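Read-out is the 665/620 nm HTRF ratio, from a Tb-cryptate anti-phosphotyrosine antibody and streptavidin-XL665 bound to phosphorylated biotin-peptide substrate. The enzyme, A431-derived EGFR (~3 U/ml), was given 15 min compound pre-binding at 22° C in Hepes pH 7.0 with Mg2+/Mn2+ before reaction.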

Test [2] addresses human SOS1 (nucleotide exchange of K-Ras^G12C) (Homo sapiens, UniProt Q07889). Briefly: Biochemical assay 2: K-Ras^G12C activation assay by hSOS1 at high GTP concentration (HTRF). The conditions noted are these: for IC50: E-notation values, unit inferred, 50 μM GTP, read-out: Assay 2 (KRAS-Activation, high GTP) IC50.
Setting [3] is: E-notation values, unit inferred, read-out: EGFR-assay IC50.
[4] abbreviates: in μM, read-out: EGFR-assay IC50.

Epidermal Growth Factor Receptor (EGFR), sequence (P00533 25-1210): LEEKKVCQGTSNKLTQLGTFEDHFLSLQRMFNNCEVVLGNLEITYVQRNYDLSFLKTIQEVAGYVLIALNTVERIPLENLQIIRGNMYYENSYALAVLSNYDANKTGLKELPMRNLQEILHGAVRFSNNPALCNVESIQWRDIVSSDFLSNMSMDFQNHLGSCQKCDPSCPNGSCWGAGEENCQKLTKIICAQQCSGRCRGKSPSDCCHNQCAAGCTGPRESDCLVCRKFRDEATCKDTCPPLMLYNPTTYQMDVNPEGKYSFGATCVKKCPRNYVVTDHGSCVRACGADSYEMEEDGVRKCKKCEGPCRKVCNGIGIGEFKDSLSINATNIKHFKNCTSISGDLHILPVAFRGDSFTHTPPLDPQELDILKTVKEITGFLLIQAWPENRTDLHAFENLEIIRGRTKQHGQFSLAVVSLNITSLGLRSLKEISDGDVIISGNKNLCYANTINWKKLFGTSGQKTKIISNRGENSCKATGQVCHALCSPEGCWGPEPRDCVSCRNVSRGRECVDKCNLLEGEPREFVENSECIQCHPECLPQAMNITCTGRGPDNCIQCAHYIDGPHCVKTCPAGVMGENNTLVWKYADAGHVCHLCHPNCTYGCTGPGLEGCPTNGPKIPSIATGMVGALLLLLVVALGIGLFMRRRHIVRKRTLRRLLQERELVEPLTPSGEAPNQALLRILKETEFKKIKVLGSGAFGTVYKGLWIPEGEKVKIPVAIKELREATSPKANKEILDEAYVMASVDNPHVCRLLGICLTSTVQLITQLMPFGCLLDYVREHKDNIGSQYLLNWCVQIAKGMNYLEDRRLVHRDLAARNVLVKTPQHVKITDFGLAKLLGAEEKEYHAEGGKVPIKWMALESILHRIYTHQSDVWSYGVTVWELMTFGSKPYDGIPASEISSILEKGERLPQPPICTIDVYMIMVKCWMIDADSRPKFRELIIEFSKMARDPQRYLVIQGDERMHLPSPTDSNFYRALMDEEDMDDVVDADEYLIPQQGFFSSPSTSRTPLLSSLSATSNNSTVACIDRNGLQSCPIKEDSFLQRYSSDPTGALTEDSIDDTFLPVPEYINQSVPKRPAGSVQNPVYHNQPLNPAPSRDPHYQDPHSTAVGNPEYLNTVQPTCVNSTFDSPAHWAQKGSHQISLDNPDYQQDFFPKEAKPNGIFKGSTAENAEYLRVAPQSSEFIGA

Consider `Cc1nc(NC(C)c2ccc(-c3ccccc3CN(C)C)s2)c2cc(NS(C)(=O)=O)ccc2n1` (centres unmarked) [Example 438, N-(4-{[1-(5-{2-[(dimethylamino)methyl]phenyl}thiophen-2-yl)ethyl]amino}-2-methylquinazolin-6-yl)methanesulfonamide], for which the IC50 in test [1] (setting [3]) is over 20 µM; in test [2] it was 0.0655 µM.

As for `COc1cc2nc(C)nc(NC(C)c3ccc(-c4ccc(F)cc4CNC(=O)CO)s3)c2cc1OC` (centres unmarked) [Example 382, N-[2-(5-{1-[(6,7-dimethoxy-2-methylquinazolin-4-yl)amino]ethyl}thiophen-2-yl)-5-fluorobenzyl]-2-hydroxyacetamide], the results for the IC50 in test [1] (setting [4]) and in test [2] were over 20 µM and 0.931 µM, respectively.

In the case of `COc1cc(C)c2nc(C)nc(N[C@H](C)c3cccc(Cl)c3)c2c1` [Example 396, N-[(1R)-1-(3-chlorophenyl)ethyl]-6-methoxy-2,8-dimethylquinazolin-4-amine], the IC50 was over 20 µM in test [1] (setting [3]) and 1.15 µM in test [2].

For `Cc1nc(NC(C)c2ccc(-c3ccccc3CN(C)C)s2)c2cc(NC(=O)N(C)C)ccc2n1` (centres unmarked) [Example 440, 3-(4-{[1-(5-{2-[(dimethylamino)methyl]phenyl}thiophen-2-yl)ethyl]amino}-2-methylquinazolin-6-yl)-1,1-dimethylurea], the IC50 is over 20 µM in test [1] (setting [3]) and 0.576 µM in test [2].

For the compound `COc1cc2nc(C)nc(NC(C)c3ccc(-c4ccc(Cl)cc4CN)s3)c2cc1OC` (centres unmarked) [Example 398, N-[1-{5-[2-(aminomethyl)-4-chlorophenyl]thiophen-2-yl}ethyl]-6,7-dimethoxy-2-methylquinazolin-4-amine], the IC50 in test [1] (setting [3]) was over 20 µM; in test [2], 0.0634 µM.

With `CNC(=O)Nc1ccc2nc(C)nc(NC(C)c3ccc(-c4ccccc4CN(C)C)s3)c2c1` (centres unmarked) [Example 457, 1-(4-{[1-(5-{2-[(dimethylamino)methyl]phenyl}thiophen-2-yl)ethyl]amino}-2-methylquinazolin-6-yl)-3-methylurea], the IC50 in test [1] (setting [3]) is over 20 µM; in test [2], 0.682 µM.

For `Cc1nc(N[C@H](C)c2cccc(Cl)c2)c2cc(CO)ccc2n1` [Example 373, (4-{[(1R)-1-(3-chlorophenyl)ethyl]amino}-2-methylquinazolin-6-yl)methanol], the figures for the IC50 in test [1] (setting [4]) and in test [2] were over 20 µM and 6.2 µM, respectively.

In the case of `COC(=O)C(C)(C)c1ccccc1-c1ccc(C(C)Nc2nc(C)nc3cc(OC)c(OC)cc23)s1` (centres unmarked) [Example 436, methyl 2-[2-(5-{1-[(6,7-dimethoxy-2-methylquinazolin-4-yl)amino]ethyl}thiophen-2-yl)phenyl]-2-methylpropanoate], the IC50 is over 20 µM in test [1] (setting [3]) and 1.47 µM in test [2].

`COc1cc2nc(C)nc(NC(C)c3ccc(-c4ccccc4CNc4ccccc4)s3)c2cc1OC` (centres unmarked) [Example 362, 6,7-dimethoxy-2-methyl-N-[1-(5-{2-[(phenylamino)methyl]phenyl}thiophen-2-yl)ethyl]quinazolin-4-amine]: in test [1] (values given in μM, read-out: EGFR kinase inhibition IC50), the IC50 is over 20 µM. For the same compound, the inhibition at 20 µM in test [2] (read-out: Assay 2 (KRAS-Activation by SOS high GTP) activity expressed as % inhibition at 20 μM, high GTP, at 20 μM) was found to be 27%.

As for `COc1cc2nc(C)nc(NC(C)c3sc(-c4ccccc4CNC(=O)OC(C)(C)C)cc3Cl)c2cc1OC` (centres unmarked) [Example 429, tert-butyl [2-(4-chloro-5-{1-[(6,7-dimethoxy-2-methylquinazolin-4-yl)amino]ethyl}thiophen-2-yl)benzyl]carbamate], the IC50 in test [1] (setting [3]) was over 20 µM; in test [2], 3.05 µM.

Regarding `COc1cc2nc(C)nc(NC(C)c3ccc(-c4ccccc4C(O)CO)s3)c2cc1OC` (centres unmarked) [Example 403], the IC50 was over 20 µM in test [1] (setting [3]) and 0.548 µM in test [2].

On to `COc1cc2nc(C)nc(NC(C)c3cc(C)c(-c4cnc5n4CCC5)s3)c2cc1OC` (centres unmarked) [Example 381, N-{1-[5-(6,7-dihydro-5H-pyrrolo[1,2-a]imidazol-3-yl)-4-methylthiophen-2-yl]ethyl}-6,7-dimethoxy-2-methylquinazolin-4-amine], for which the IC50 is over 20 µM in test [1] (setting [4]) and 1.9 µM in test [2].

For `COc1cc2nc(C)nc(NC(C)c3ccc(-c4ccc(C5CC5)cc4CN(C)C)s3)c2cc1OC` (centres unmarked) [Example 443, N-[1-(5-{4-cyclopropyl-2-[(dimethylamino)methyl]phenyl}thiophen-2-yl)ethyl]-6,7-dimethoxy-2-methylquinazolin-4-amine], the IC50 in test [1] (setting [3]) was over 20 µM; in test [2], 0.0605 µM.

`COc1cc2nc(C)nc(N[C@H](C)c3cccc(-c4ccnc(O)c4)c3)c2cc1OC` [Example 388, 4-(3-{(1R)-1-[(6,7-dimethoxy-2-methylquinazolin-4-yl)amino]ethyl}phenyl)pyridin-2-ol]: the values for the half-inhibitory concentration (IC50) in test [1] (setting [3]) and in test [2] were over 20 µM and 0.801 µM, respectively.

Take `COc1cc2nc(C)nc(NC(C)c3ccc(-c4ccnc(O)c4)s3)c2cc1OC` (centres unmarked) [Example 410, 4-(5-{1-[(6,7-dimethoxy-2-methylquinazolin-4-yl)amino]ethyl}-2-thienyl)pyridin-2-ol]: the IC50 is over 20 µM in test [1] (setting [3]) and 2.79 µM in test [2].

For the compound `COc1cc2nc(C)nc(NC(C)c3ccc(-c4cc(Cl)ccc4CNC(=O)OC(C)(C)C)s3)c2cc1OC` (centres unmarked) [Example 387, tert-butyl [4-chloro-2-(5-{1-[(6,7-dimethoxy-2-methylquinazolin-4-yl)amino]ethyl}-thiophen-2-yl)benzyl]carbamate], the figures for the IC50 in test [1] (setting [3]) and in test [2] were over 20 µM and 1.66 µM, respectively.

On to `Cc1ccc2nc(C)nc(N[C@H](C)c3cccc(Cl)c3)c2c1` [Example 404, N-[(1R)-1-(3-chlorophenyl)ethyl]-2,6-dimethylquinazolin-4-amine], for which the half-inhibitory concentration (IC50) in test [1] (setting [3]) is over 20 µM; in test [2] it was 1.45 µM.

Consider `C#CC(O)c1ccccc1-c1ccc(C(C)Nc2nc(C)nc3cc(OC)c(OC)cc23)s1` (centres unmarked) [Example 378, 1-[2-(5-{1-[(6,7-dimethoxy-2-methylquinazolin-4-yl)amino]ethyl}thiophen-2-yl)phenyl]prop-2-yn-1-ol], for which the figures for the IC50 in test [1] (setting [4]) and in test [2] were over 20 µM and 1.05 µM, respectively.

Consider `Cc1nc(N[C@H](C)c2cccc(Cl)c2)c2cc(-c3cnn(C)c3)ccc2n1` [Example 406, N-[(1R)-1-(3-chlorophenyl)ethyl]-2-methyl-6-(1-methyl-1H-pyrazol-4-yl)quinazolin-4-amine], for which the IC50 in test [1] (setting [3]) is over 20 µM; in test [2], 0.4 µM.

As to `COc1cc2nc(C)nc(N[C@H](C)c3cccc(-c4ccccc4CC(N)=O)c3)c2cc1OC` [Example 393, 2-(3′-{(1R)-1-[(6,7-dimethoxy-2-methylquinazolin-4-yl)amno]ethyl}biphenyl-2-yl)acetamide], the IC50 is over 20 µM in test [1] (setting [3]) and 0.975 µM in test [2].

`COc1cc2nc(C)nc(NC(C)c3ccc(-c4ccccc4C(C)(C)N)s3)c2cc1OC` (centres unmarked) [Example 455, N-[1-{5-[2-(2-aminopropan-2-yl)phenyl]thiophen-2-yl}ethyl]-6,7-dimethoxy-2-methylquinazolin-4-amine]: the IC50 is over 20 µM in test [1] (setting [3]) and 1.04 µM in test [2].

Consider `COc1cc2nc(C)nc(NC(C)c3ccc(-c4ccccc4C4CC(=O)N4)s3)c2cc1OC` (centres unmarked) [Example 411, 4-[2-(5-{1-[(6,7-dimethoxy-2-methylquinazolin-4-yl)amino]ethyl}thiophen-2-yl)phenyl]azetidin-2-one], for which the IC50 in test [1] (setting [3]) and in test [2] was over 20 µM in each case.
